The term melting point denotes the temperature of the solid-liquid transition. Take `CCOc1cc2c(cc1S(N)(=O)=O)C(CNC(=O)N1CC(C)=C(CC)C1=O)CCO2` (stereo not drawn): the melting point came out at 192 °C.

In turn, `O=c1c2cncc3cccc(c32)n2c([N+](=O)[O-])ccc12` came in with a melting point of 192 °C.

The compound `CN1C(=O)C(CCCN2CCN(c3ccc(F)cc3)CC2)Sc2ccccc21` (stereo not drawn) yielded a melting point of 103 to 104 °C.

In turn, `CCN1C(=O)C(C)Oc2ccc(-n3c(=O)cc(C(F)(F)F)n(C)c3=O)cc21` (stereo not drawn) had a melting point of 221 to 222 °C.

Compound `Nc1c(O)c(Br)cc(Br)c1C(=O)O` registered a melting point of 162 to 164 °C.

The compound `COC(=O)C(C)Oc1ccc(NC(=O)OCCOC(=O)Nc2ccc(OC(C)C(=O)OC)cc2)cc1` (stereo not drawn) registered a melting point of 98 to 100 °C.

Regarding `COc1ccc(-c2nc(C(N)=O)sc2-c2ccc(OC)cc2)cc1`, the melting point was 160 to 162 °C.

`COc1ccc2c(c1)cc1c3c(cccc32)C(=O)OC1=O` yielded a melting point of 292 to 293 °C.

In turn, `Nc1c(N=O)c(=O)n(CC2CCCCCC2)c(=O)n1CC1CCCCCC1` had a melting point greater than 250 °C.

`COP(=O)(Cc1c(C)ccc2ccccc12)OC` came in with a melting point of 54 to 57 °C.

In turn, `N[C@H]1CC[C@H](CNc2ncc3ncnc(Nc4ccc(F)c(Cl)c4)c3n2)CC1` gave a melting point of 166 to 169 °C.

`Cc1ccc2c(c1)/C(=N\NC(N)=O)C(=O)N2CCCN(C(C)C)C(C)C` displayed a melting point of 145 to 148 °C.

The compound `COc1ccc(NC(=O)C(Cl)Cl)cn1` registered a melting point of 104 to 107 °C.

`O=C(O)CCCCN1CCN(C2=Nc3ccccc3Oc3ccc(Cl)cc32)CC1`: the melting point lay within 223 to 226 °C.

`Cc1cccc(C)c1C(=O)n1cc(F)c(N=CN(C)C)nc1=O`: the melting point lay within 120 to 150 °C.

For the compound `COc1ccc(CCCCCCCSc2ccccc2)cc1`, the melting point lay within 58 to 59 °C.

The compound `CCOC(=O)C(CC)Sc1nc2c(c(=O)[nH]c(=O)n2C)n1Cc1cccc(N)c1` (stereo not drawn) came in with a melting point of 107 °C.

For the compound `CCOC(=O)CSC1=CC(=NS(=O)(=O)c2cccs2)c2ccccc2C1=O`, the melting point was 110 to 112 °C.

In turn, `COc1cc2ncnc(N3CCN(C(=O)Nc4ccc5[nH]ccc5c4)CC3)c2cc1OC` gave a melting point of 209 to 210 °C.

`O=C(O)COc1cccc2c1OCc1sc(SCCC(c3ccccc3)c3ccccc3)nc1-2` displayed a melting point of 112 to 114 °C.

In turn, `c1ccc(CN2CCN(Cc3ccccc3)[C@@H](CCc3cccnc3)C2)cc1` showed a melting point of 94 to 95.5 °C.

As for `COCNC(=O)OC(C(=O)OC)P(C)(C)=O` (stereo not drawn), the melting point is 101 °C.

The compound `COC1(c2csc(S(=O)(=O)c3ccc4c(c3)CC/C4=N\O)c2)CCOCC1` came in with a melting point of 144 to 145 °C.

Compound `Cn1nc(-c2c(Cl)cc(C(F)(F)F)cc2Cl)cc1N` yielded a melting point of 161 to 163 °C.

Compound `CCc1c(Cc2cc(C)cc(C)c2)n(COCCCCO)c(=O)[nH]c1=O` had a melting point of 101 to 103 °C.

As to `CNC(=O)c1ccc(C=CC(=O)Nc2cccc(-c3ccc(C)c(CCl)c3C)c2)cc1`, the melting point lay within 236 to 244 °C.

In turn, `O=C(O)CN1C(=O)C(=Cc2cccc(Cl)c2)SC1=S` yielded a melting point of 227 to 229 °C.

The compound `CCOC(=O)N(c1ccc(Cl)cc1)c1ccccc1[N+](=O)[O-]` displayed a melting point of 90 to 93 °C.

Compound `NNC(=O)C=Cc1cc2ccccc2o1` showed a melting point of 173 to 174 °C.

Compound `OC1CSC(Oc2ccc(-c3ccoc3)nc2)C(O)C1O` (stereo not drawn) returned a melting point of 132 °C.

On to `Oc1ccc(C2COc3cc(O)cc(O)c3C2)cc1` (stereo not drawn), for which the melting point lay in the range of 206 to 208 °C.

In the case of `Cc1ccc(Nc2cc(C(=O)O)c(Nc3ccc(C)cc3)cc2C(=O)O)cc1`, the melting point amounted to 310 °C.

In turn, `CCC(=O)OC(C)c1ccc(O)cc1` (single isomer, unassigned; (+)) came in with a melting point of 71 to 72 °C.

On to `CCc1nc2ccc(Cl)nc2n1Cc1ccc2oc(-c3ccccc3-c3nnn[nH]3)c(Br)c2c1`, for which the melting point lay in the range of 162 to 165 °C.

Compound `CC1CCN(c2scc(C(C)(C)C)c2C#N)C1=O` (stereo not drawn) gave a melting point of 92 to 94 °C.

Take `C=CC(=O)N(C)c1cccc2c(=O)c(C)c(-c3ccccc3)oc12`: the melting point is 136 to 137 °C.

`N#Cc1nn(-c2c(Cl)cc(C(F)(F)F)cc2Cl)c(Sc2ccccc2)c1SC(F)(F)F` had a melting point of 84 to 86 °C.

Turning to `Nc1cccc2c1CNC2`, the melting point lay within 81 to 85 °C.

`c1ccc(Nc2nc(-c3cccnc3)nc3ccccc23)cc1`: the melting point was in the range of 173 to 178 °C.

`COC(=O)c1cc(OC)c(OCc2ccccc2)c(C23CC4CC(CC(C4)C2)C3)c1` displayed a melting point of 229 °C.

Regarding `CCCn1nc(CC)c(C(=O)O)c1Cc1ccc(-c2ccccc2-c2nnn[nH]2)cc1`, the melting point is 229 °C.

As to `Cc1cc(C#N)ccc1-c1ccc(C=O)cc1`, the melting point turned out to be 130 °C.

`Cc1nc2c3c(ccn2c1C)C(O)C(O)C(c1ccsc1)N3` (stereo not drawn) had a melting point of 134 to 138 °C.

`CC1(C)CC(SCc2c(C(F)(F)F)n[nH]c2Cl)=NO1` gave a melting point of 120 to 122 °C.

As to `N#CC(=C1CCN(Cc2ccccc2)CC1)c1ccc(F)cc1`, the melting point fell in the range of 81 to 83 °C.

`O=C(O)CCCCCNC(=O)S[C@@H]1CC(=O)N(Cc2ccc(Oc3ccc(F)cc3)nc2)C1` returned a melting point of 129 to 130 °C.

Regarding `OCC(O)COCCCCCCCCOc1ccc(-c2ccccc2)cc1` (stereo not drawn), the melting point fell in the range of 94 to 96 °C.

With `CON=C(Nc1nc(C)cc(C)n1)NS(=O)(=O)c1ccccc1S(=O)(=O)OC`, the melting point was in the range of 130 to 138 °C.

Turning to `COc1ccc(CCNC(=O)CCCCC(=O)NC2Cc3ccccc3C2)cc1OC`, the melting point lay within 162 to 164 °C.

`CN(C(=O)OCc1ccccc1)c1ccc(OCC(=O)N[C@@H](CC(N)=O)C(=O)N[C@@H](Cc2ccccc2)[C@H](O)C(=O)N2CCC[C@H]2C(=O)NC(C)(C)C)cc1` had a melting point of 98 to 100 °C.

Compound `COc1cc(COc2nn(-c3ccccc3)cc2C=O)ccc1OCc1nc(-c2cccc(C#N)c2)oc1C` displayed a melting point of 161 to 162 °C.

The compound `O=C(CCl)c1ccc2c(C(=O)CCl)ccc3c2c1CC3` had a melting point of 184 to 187 °C.

`CCC(C)(C)Nc1cccnc1N(C)C1CCN(C(=O)c2cc3cc([N+](=O)[O-])ccc3[nH]2)CC1` registered a melting point of 206 to 208 °C.

Compound `CC(C(=O)O)n1ccc2c(OCc3ccccc3)cccc21` (stereo not drawn) displayed a melting point of 143 to 146 °C.

`COc1cc2c(cc1OC)CN(CCc1ccc(NC(=O)c3cccc4c(=O)c5cccc(OC)c5sc34)cc1)CC2` showed a melting point of 218 to 219 °C.

Turning to `Nc1ccc2c(c1)C(=O)CC1(CCN(CCc3ccc4nonc4c3)CC1)O2`, the melting point lay in the range of 191 to 193 °C.

The compound `O=C=Nc1c(Cl)cc(Cl)cc1Cl` returned a melting point of 65 to 66 °C.

In turn, `Cc1c(Cl)cccc1N=c1scc(-c2ccc(Cl)c(S(=O)(=O)N(C)C)c2)n1C` had a melting point of 144 to 146 °C.

With `Cc1ccc(C=NNC(=O)OC(C)(C)C)cc1C`, the melting point is 168 to 169 °C.

The compound `CC(CC(=O)O)NC(=O)c1ccccc1` (stereo not drawn) had a melting point of 150 to 152 °C.

`CN(C)C(=O)c1cc(N2CCN([C@H]3CC[C@@H](c4cn(C)c5ccc(C#N)cc54)CC3)CC2)c2ncccc2c1` registered a melting point of 163 to 165 °C.

For the compound `Cc1ccnc(N=C2SC[C@@H]3Cc4ccccc4CN23)n1`, the melting point came out at 179 °C.

With `O=C(O)c1cccc(-c2cc([N+](=O)[O-])ccc2F)c1`, the melting point was 272 to 274 °C.

These data come from a melting point compilation (Tetko et al.; mined from patent text by program, amines drawn as free bases though some values may be those of a salt).
